These results are taken from article PMC8230625 (International Journal of Molecular Sciences, 2021).

In one series the test system is HeLa cells. In words: in vitro. As to conditions: for Concentration at (and above) which statistically significant (p < 0.01) decrease in cell viability was noticed: 24 h incubation, single compound; for IC50: Homo sapiens, read-out: Dm (IC50), viability of HeLa cells (ATP/well); for Effect of the non-toxic (subtoxic) concentration of the compound on ATP levels of ZEN-exposed cells: co-exposure with toxic concentration of ZEN (20 μM), compared to ZEN-exposed cells, Figure 3A. As to the method: (§1) The HeLa cervical cancer adherent cell line (ATCC: CCL-2) was applied for the evaluation of individual and combined effects of mycotoxins on cell viability. The cells were cultured in DMEM (high glucose, 4500 mg/L) with 10% FBS, penicillin (100 U/mL), and streptomycin (100 μg/mL) in sterile plastic cell culture flasks (75 cm^2; 5% CO2, 37 °C). The cells were trypsinized and plated onto 96-well sterile plastic plates. Stock solutions (each 5000 μM) of ZEN, ZELs, ZAN, and ZALs used in cell experiments were prepared in 96 v/v% ethanol (spectroscopic grade; VWR, Debrecen, Hungary). Stock solutions of AOH (5000 μM or 40 mM) were prepared in spectroscopic grade dimethyl sulfoxide (DMSO; Fluka, Morris Plains, NJ, USA). Mycotoxin stock solutions were stored at −20 °C.
(§2) HeLa cells were treated with ZEN, α/β-ZEL, ZAN, α/β-ZAL, and AOH (0–250 μM) for 24 h. […] The cell viability was evaluated based on the ATP levels/well employing a previously described method without modifications.
(§3) Combined effects were evaluated based on combination indices (CI) determined using the CompuSyn software (ComboSyn Inc., Paramus, NJ, USA) by the median-effect equation of the mass-action law:(1) logfa/fu=m×log(D)−m×log(Dm), where fa and fu are the affected and unaffected fractions of the system, respectively; D represents the dose, Dm denotes the dose necessary for the production of median effect, while m is the sigmoidicity coefficient (m > 1 sigmoidal, m = 1 hyperbolic, m < 1 flat sigmoidal).
(§4) The combined effects of mycotoxins were determined by the CI values calculated based on the following equation [68]:(2) CI=(D)1/(Dx)1+(D)2/(Dx)2, where (Dx)1 and (Dx)2 are the individual doses necessary for the production of x% effect, while (D)1 and (D)2 are the doses of the two compounds that combined evoke the same effect as (Dx)1 alone or (Dx)2 alone, i.e., the targeted x% effect.

The nature of a further series: in vitro. As to conditions: human. The procedure:
as §1, §2, §3, §4

The target in series [1] is T1, hERα (Saccharomyces cerevisiae BLYES strain) (Homo sapiens, UniProt P03372).
T1 construct: expressed in transfected cells; host or cells: Saccharomyces cerevisiae BLYES strain (hERα gene integrated in the chromosome)
T1 sequence (P03372 whole entry): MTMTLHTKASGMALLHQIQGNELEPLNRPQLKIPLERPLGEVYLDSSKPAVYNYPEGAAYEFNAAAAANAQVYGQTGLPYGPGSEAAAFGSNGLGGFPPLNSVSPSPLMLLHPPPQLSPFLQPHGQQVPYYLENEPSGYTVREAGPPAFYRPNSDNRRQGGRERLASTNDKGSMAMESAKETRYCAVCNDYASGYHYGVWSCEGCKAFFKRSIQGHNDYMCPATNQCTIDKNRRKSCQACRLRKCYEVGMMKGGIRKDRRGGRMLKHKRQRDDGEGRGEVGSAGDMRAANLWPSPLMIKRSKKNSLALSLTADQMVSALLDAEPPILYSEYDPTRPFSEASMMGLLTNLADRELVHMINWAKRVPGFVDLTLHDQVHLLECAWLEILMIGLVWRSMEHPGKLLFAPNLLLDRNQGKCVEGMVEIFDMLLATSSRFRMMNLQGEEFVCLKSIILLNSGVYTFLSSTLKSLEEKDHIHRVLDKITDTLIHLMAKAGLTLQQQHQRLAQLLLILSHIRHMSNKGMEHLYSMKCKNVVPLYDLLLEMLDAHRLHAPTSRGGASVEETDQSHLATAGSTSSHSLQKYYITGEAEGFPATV
Description: cell-based. Type of series: cell-based. As to conditions: for CI Value (combination index) / Combined Estrogenic Effect / Combined Estrogenic Effect (grade symbol): + 6.28 × 10^−2 µM ZEN; for Combined estrogenic effect in Figure 5B: + 62.8 ×10^-3 μM ZEN.
Excerpt: The Saccharomyces cerevisiae BLYES strain was applied to examine the estrogenic activity of the compounds tested. This bioluminescent yeast bioreporter harbors the hERα gene on its chromosome, and it has two plasmids with genes responsible for bioluminescence. The pUTK404 plasmid contains luxC, -D, and -E genes from Photorhabdus luminescens and flavin oxidoreductase gene (frp) from Vibrio harveyi. The pUTK407 plasmid contains tandem estrogen responsive elements (EREs) that initiate the transcription of luxA and luxB genes after binding the dimer formed by estrogen receptor—ligand complexes.
S. cerevisiae BLYES strain was grown in 30 mL of yeast growth medium (YMM leu-, ura-) for 18–20 h at 30 °C.
Stock solutions of the compounds tested were prepared in methanol and stored at −20 °C. Estrogen assays were carried out on 96-well (PS, F-bottom) microplates (Greiner Bio-One Hungary Ltd., Mosonmagyaróvár, Hungary). In single compound tests, stock solutions of the compounds were serially diluted with methanol; whereas, in co-exposure experiments, a 20-µL mixture of the solutions was placed into the wells of the microplates. After the evaporation of methanol, yeast culture (200 µL; OD600 of 1.000 ± 0.050) were pipetted into each well. E2 was applied as a positive control, while wells containing only yeast cells and yeast cells with methanol served as negative and solvent controls, respectively. Bioluminescence (cps, counts per second) was measured after 5-h incubation (30 °C) with a VictorX Multilabel Plate Reader (Perkin Elmer Inc., Waltham, MA, USA).
as §3, §4
Zero percent was defined in each measurement as the mean of the methanol control values, and 100% was defined as the mean of all plateau values of single compounds’ concentration—response curves.

The test system of the next series is hERα. Also noted: method as in PMID 16194592. As to conditions: cited from earlier work.
The test system of a further series is androgen receptors. Details: method as in PMID 28910742. The conditions noted are these: yeast reporters bioassay; cited from earlier work.
The test system of the next series is Ishikawa cells. Details: method as in PMID 16194592. The conditions noted are these: alkaline phosphatase assay; cited from earlier work.
The test system of the next series is estrogen receptors. Also noted: method as in PMID 28910742. The conditions noted are these: yeast reporters bioassay; cited from earlier work.
Another series relates to hERβ. Also noted: method as in PMID 16194592. The conditions noted are these: cited from earlier work.
Setting [2] is: HeLa, 24 h, 10 µM (lower toxic concentration) of the compound + 20 µM ZEN.
Setting [3] is: HeLa, 24 h, 10 µM of the compound + 20 µM ZEN.
Where [4] appears, read: HeLa, 24 h, 10 µM of the compound + 20 µM ZEN, CompuSyn.
[5] abbreviates: HeLa, 24 h, 30 µM (higher toxic concentration) of the compound + 20 µM ZEN.
Where [6] appears, read: HeLa, 24 h, 30 µM of the compound + 20 µM ZEN.
[7] abbreviates: HeLa, 24 h, 30 µM of the compound + 20 µM ZEN, CompuSyn.
Setting [8] is: BLYES, higher concentration (µM): α-ZEL 1.25 × 10^−2, β-ZEL 2.43, ZAN 4.99 × 10^−2, α-ZAL 2.48 × 10^−2, β-ZAL 2.48 × 10^−1, GEN 1.48.
Setting [9] is: BLYES, higher estrogenic concentration of the compound (as E22).
The mark [10] stands for this setting: BLYES, lower concentration (µM): α-ZEL 6.24 × 10^−3, β-ZEL 1.22, ZAN 2.50 × 10^−2, α-ZAL 1.24 × 10^−2, β-ZAL 1.24 × 10^−1, GEN 7.4 × 10^−1.
Where [11] appears, read: BLYES, lower estrogenic concentration of the compound (as E21).
[12] abbreviates: BLYES, higher estrogenic concentration of the compound (as E20).
The mark [13] stands for this setting: BLYES, lower estrogenic concentration of the compound (as E19).

SMILES strings stand for the structures. Several values for one entry are separate records, joined by “and”; a condition that tells them apart may be missing. Equal values may be shown once. Entries after “also recorded” stand apart in the source; their conditions may differ. Read-outs that look alike come from different tables or passages of the source.

For `Cc1cc(O)cc2oc(=O)c3c(O)cc(O)cc3c12` [AOH, alternariol], the “Combined cytotoxic effect in Figure 3B” value was “Syn and synergism” with HeLa cells (setting [2]); “Syn and synergism” in the series on HeLa cells (setting [5]). In addition, the “Combined Cytotoxic Effect” value in the series with HeLa cells (setting [3]) and in the series on HeLa cells (setting [6]) was “Synergism (CI < 0.8: synergism)” each time. The figures for the “Combined Cytotoxic Effect (grade symbol)” value in the series on HeLa cells (setting [3]) and in the series with HeLa cells (setting [6]) were “+ (0.60 < CI < 0.80: +)” and “++ (CI < 0.60: ++)”, respectively. Further, the “CI Value (combination index)” value in the series on HeLa cells (setting [4]) amounted to 0.73; with HeLa cells (setting [7]), 0.50. For the same compound, the “Concentration at (and above) which statistically significant (p < 0.01) decrease in cell viability was noticed” value with HeLa cells (HeLa) is recorded as 10 µM. Further, the IC50 in the series on HeLa cells (HeLa, 24 h) was 33.6 µM. Moreover, in the series “in vitro” (Decrease in cellular ATP levels (% of control), individual effect, HeLa, 24 h, single compound at 10 μM), the cytotoxicity at 24 h, 10 µM was 13.6%. Besides, the cytotoxicity at 24 h, 30 µM in “in vitro” (Decrease in cellular ATP levels (% of control), individual effect, HeLa, 24 h, single compound at 30 μM) was 32.4%. Moreover, the “Effect of subtoxic (non-estrogenic) concentration of the compound on the estrogenic effect of ZEN” value in series [1] (BLYES, co-treatment with ZEN (approx. 20% estrogenicity), α-ZEL 1.56 × 10^−3 µM, ZAN 6.24 × 10^−3 µM, AOH up to 48.4 µM, Figure 5A) is reported as “did not cause any relevant change; also recorded: did not increase the estrogenic effect of ZEN”. The “Estrogenic effect in BLYES assay” value in series [1] (single compound, even at 50 µM) is “did not induce estrogenic effects; also recorded: did not show estrogenicity”. In addition, the “Fold lower affinity toward hERα compared to 17β-estradiol (E2)” value with hERα was 10,000 fold. For the same compound, in the series on androgen receptors, the “Behaviour at androgen receptors” value is listed as “full agonist”. Further, the “Fold weaker estrogenic effects vs. E2” value with Ishikawa cells is recorded as 10,000 fold. The “Behaviour at estrogen receptors” value with estrogen receptors is listed as “weak partial agonist”. For the same compound, the “Fold lower affinity toward hERβ compared to 17β-estradiol (E2)” value with hERβ was 2500 fold.
For `C[C@H]1CCC[C@@H](O)CCC/C=C/c2cc(O)cc(O)c2C(=O)O1` [β-ZEL, β-zearalenol], the results for the “Combined cytotoxic effect in Figure 3B” value with HeLa cells (setting [2]) and in the series on HeLa cells (setting [5]) were “Syn” and “Add”, respectively. For the same compound, the “Combined Cytotoxic Effect” value with HeLa cells (setting [3]) is listed as “Synergism (CI < 0.8: synergism)”; in the series with HeLa cells (setting [6]) it was “Additive effect (0.8 < CI < 1.2: additive effect)”. Besides, the “Combined Cytotoxic Effect (grade symbol)” value with HeLa cells (setting [3]) was “+ (0.60 < CI < 0.80: +)”; in the series on HeLa cells (setting [6]) it was “± (0.80 < CI < 1.20: ±)”. In addition, the “CI Value (combination index)” value in the series with HeLa cells (setting [4]) came to 0.64; with HeLa cells (setting [7]) it was 1.07; in series [1] (setting [8]), 0.95; in series [1] (setting [10]), 0.77. Moreover, the “Effect of the non-toxic (subtoxic) concentration of the compound on ATP levels of ZEN-exposed cells” value with HeLa cells (HeLa, 24 h) is given as “statistically significant (p < 0.01) decreases in ATP levels”. Besides, the “Concentration at (and above) which statistically significant (p < 0.01) decrease in cell viability was noticed” value in the series with HeLa cells (HeLa) worked out at 10 µM. The IC50 in the series on HeLa cells (HeLa, 24 h) is 39.4 µM. In “in vitro”, the cytotoxicity at 10 µM was found to be 19.7%. Moreover, the cytotoxicity at 30 µM in “in vitro” is 33.1%. Besides, in series [1], the 50% effective concentration (EC50) (usually the concentration needed to bring the measured effect to its halfway point) is 2.4 µM. In addition, the “Combined Estrogenic Effect” value in series [1] (setting [9]) is “Additive effect (0.8 < CI < 1.2: additive effect)”; in series [1] (setting [11]) it was “Synergism (CI < 0.8: synergism)”. The “Combined Estrogenic Effect (grade symbol)” value in series [1] (setting [9]) is on record as “± (0.80 < CI < 1.20: ±)”; in series [1] (setting [11]) it was “+ (0.60 < CI < 0.80: +)”. For the same compound, the “Combined estrogenic effect in Figure 5B” value in series [1] (setting [12]) is listed as “additive effects”; in series [1] (setting [13]), “synergism”. Further, in series [1] (BLYES, single compound), the “Concentration at (and above) which statistically significant (p < 0.01) estrogenic effect was observed” value is 0.31 µM.
With `C[C@H]1CCC[C@H](O)CCCCCc2cc(O)cc(O)c2C(=O)O1` [α-ZAL, α-zearalanol], the “CI Value (combination index)” value with HeLa cells was 0.78 and 0.52; in series [1] (setting [8]), 1.16; in series [1] (setting [10]) it was 0.97. The “Combined cytotoxic effect in Figure 3B” value in the series with HeLa cells (setting [2]) and in the series with HeLa cells (setting [5]) was “Syn” each time. The “Combined Cytotoxic Effect” value in the series on HeLa cells (setting [3]) and in the series on HeLa cells (setting [6]) was “Synergism (CI < 0.8: synergism)” throughout. Besides, the “Combined Cytotoxic Effect (grade symbol)” value with HeLa cells (setting [3]) is given as “++ (CI < 0.60: ++)”; in the series with HeLa cells (setting [6]), “+ (0.60 < CI < 0.80: +)”. The “Effect of the non-toxic (subtoxic) concentration of the compound on ATP levels of ZEN-exposed cells” value in the series with HeLa cells (HeLa, 24 h) is given as “statistically significant (p < 0.01) decreases in ATP levels”. For the same compound, the “Concentration at (and above) which statistically significant (p < 0.01) decrease in cell viability was noticed” value with HeLa cells (HeLa) worked out at 20 µM. In the series with HeLa cells (HeLa, 24 h), the IC50 is 63.8 µM. For the same compound, the cytotoxicity at 10 µM in “in vitro” was found to be 1.9%. In addition, the cytotoxicity at 30 µM in “in vitro” was determined as 19.3%. The EC50 in series [1] is 0.019 µM. Besides, the “Combined Estrogenic Effect” value in series [1] (setting [9]) and in series [1] (setting [11]) was “Additive effect (0.8 < CI < 1.2: additive effect)” throughout. In addition, the “Combined Estrogenic Effect (grade symbol)” value in series [1] (setting [9]) and in series [1] (setting [11]) was “± (0.80 < CI < 1.20: ±)” in each case. Also, the “Combined estrogenic effect in Figure 5B” value in series [1] (setting [12]) and in series [1] (setting [13]) was “additive combined effects” each time. Also, in series [1] (BLYES, single compound), the “Concentration at (and above) which statistically significant (p < 0.01) estrogenic effect was observed” value came out at 0.024 µM.
